Read-outs that look alike come from different tables or passages of the source.
Columns and labels:
PBMCs of normal subjects = conditions: cited from earlier work
CLL-PBMCs = conditions: PBMCs of patients suffering from chronic lymphocytic leukaemia; cited from earlier work
[1] = system: Human peripheral blood mononuclear cells (PBMNCs); experiment: Inhibition of T cell proliferation: [3H]-thymidine incorporation in PBMNCs activated by anti-CD3 and anti-CD28; format: cell-based; conditions: PBMC, 72 h + 8 h [3H]-thymidine, mean of the three experiments
Experimental: Human peripheral blood mononuclear cells (PBMNCs) were separated from the blood of healthy donors using a centrifuging gradient on a Ficoll-Paque™ Plus (GE Healthcare Bio-Sciences AB code 17-1440-03, Uppsala). A mixture of 5.0 ml of blood and 5.0 ml of phosphate buffered saline (PBS Gibco 14190) was deposited on 10.0 ml of Ficoll-Paque in a 50 ml Blue max tube (Becton Dickinson 352070) and centrifuged with 900 g for 30 min. The band of PBMNCs was withdrawn, washed in PBS and then centrifuged with 900 g for 10 minutes. Finally, the PBMNCs were suspended (2.5×10^5 cells/ml) in an RPMI 1640 complete medium+Glutamax (Gibco 61870) additivated with 10% of FCS, the complement of which has been heat inactivated, and with penicillin-streptomycin (Gibco 15140).
The PBMNCs were cultured in flat-bottomed 96-well plates, in a proportion of 0.5×10^5 cells/well in 200 μl of RPMI 1640 complete medium. The cells were activated by two monoclonal antibodies, one of anti-CD3 specificity, 20 ng/ml (Pharmingen 555329), and the other of anti-CD28 specificity, 200 ng/ml (Pharmingen 555725), in the presence of PDE7 inhibitors at five different concentrations, 10 μM, 3.3 μM, 1.1 μM, 0.36 μM and 0.12 μM, or of cyclosporin A, which acts as positive control of the halting of proliferation. […] After incubating for an additional 8 hours, the PBMNCs were collected on a Tomtec cell collector (Wallac) using a glass fibre filter (Wallac 1450-421), and incorporation of the [^3H]-thymidine in the nucleus of the cells was measured using a Microbeta 1450-Trilux (Wallac). The inhibition of the proliferation, expressed as percentage, was calculated using the following equation: 100−(cpm mean value of the cells in the presence of the compound/cpm mean value of the cells in the absence of the compound)×100. […]

Human PDE7 = target: T1, Human PDE7 (Homo sapiens, UniProt Q13946); experiment: PDE7 enzymatic assay (radioactive cAMP / 5′-AMP separation by TLC on PEI cellulose); format: biochemical
T1 construct: Human PDE7 was partially purified from the HUT-78 cell line; endogenous in cells
T1 sequence (Q13946 whole entry): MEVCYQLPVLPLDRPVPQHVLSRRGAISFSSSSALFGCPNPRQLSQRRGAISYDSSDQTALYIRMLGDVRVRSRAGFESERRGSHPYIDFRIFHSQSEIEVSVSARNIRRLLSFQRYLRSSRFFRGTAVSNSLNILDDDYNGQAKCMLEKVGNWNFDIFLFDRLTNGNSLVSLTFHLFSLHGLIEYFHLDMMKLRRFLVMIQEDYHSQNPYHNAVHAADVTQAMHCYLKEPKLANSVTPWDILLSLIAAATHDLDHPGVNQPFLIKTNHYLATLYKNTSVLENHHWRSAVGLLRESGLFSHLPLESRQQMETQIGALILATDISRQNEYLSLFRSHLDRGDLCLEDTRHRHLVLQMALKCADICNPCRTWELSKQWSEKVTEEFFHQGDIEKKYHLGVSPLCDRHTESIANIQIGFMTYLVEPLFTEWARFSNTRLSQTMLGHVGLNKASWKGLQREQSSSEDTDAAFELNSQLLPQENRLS
Experimental: The ability of the compounds of formula (I) to inhibit PDE7 is measured using an enzymatic assay based on the separation of radioactive cAMP (substrate of PDE7) from the radioactive 5′-AMP (product of the enzymatic reaction) by thin layer chromatography on polyethyleneimine (PEI) cellulose, after halting the enzymatic reaction. The 5′-AMP is extracted quantitatively from the PEI cellulose and its radioactivity is measured using a liquid scintillation counter.
The inhibitory activity of the compounds of formula (I) with regard to PDE7 is represented by the inhibition constant IC50, defined as the concentration of the compound (inhibitor) tested in the assay which makes it possible to reduce the enzymatic activity of PDE7 by 50%. The lower the IC50 values, the greater the inhibitory power of the compounds.
Human PDE7 was partially purified from the HUT-78 cell line by following a method analogous to that described by Bloom and Beavo (Proc. Natl. Acad. Sci. USA, (1996) 93, 14188-14192). The enzyme preparation obtained is stored at −80° C. in a buffer comprising 20 mM of Tris-HCl (pH 7.0), 5 mM of MgCl2, 4 mM of EDTA, 1 mM of dithiothreitol and 20% of glycerol. […] The Michaelis constant (Km) of PDE7 for cAMP, measured using the radiochemical assay described below, is 21 nM.
The compounds of formula (I) to be tested as PDE7 inhibitors are dissolved in DMSO at a concentration of 10 mM. These solutions are subsequently diluted in cascade in DMSO in order to obtain solutions with the desired concentrations. The latter are subsequently diluted to one-twentieth in the assay buffer to give 5% DMSO solutions. The latter are finally diluted to one-fifth in the enzymatic assay.
The assay is carried out in 1.5 ml Eppendorf tubes comprising 40 mM of Tris-HCl (pH 7.5), 15 mM of MgCl2, 1 mM of EGTA, 0.5 mg/ml of bovine serum albumin, […] of [^3H]-cAMP (corresponding to a cAMP concentration of between 15 and 25 nM), 10 μM of rolipram and PDE7 in a final volume of 100 μl. The assay is carried out in the absence (control sample) or in the presence (treated sample) of the compounds tested as PDE7 inhibitors. The final concentration of DMSO in the assay is 2%. The reaction is initiated by addition of enzyme and the samples are maintained at ambient temperature for 30 minutes. The enzymatic dilution is adjusted so as to obtain a degree of conversion of 10 to 15%. The enzymatic reaction is halted by immersion of the stoppered Eppendorf tubes in a water bath at 100° C. for 3 minutes. Blanks (reaction halted immediately after addition of the enzyme) are included in each experiment. The samples are subsequently centrifuged at 10 000×g for 1 minute and an aliquot portion of 10 μl of supernatant is deposited 2 cm from the bottom edge of a sheet of PEI cellulose on which 10 μg of cAMP and 10 μg of 5′-AMP have been deposited beforehand. In order to facilitate the migration and to make it easier to cut out the strips of PEI cellulose comprising the 5′-AMP, which take place subsequently, 18 migration lanes with a width of 1 cm are delimited per plate by scraping the cellulose with a spatula over a width of 1 mm. The plates are developed over their entire length with a 0.30 M solution of LiCl in water by ascending chromatography. The 5′-AMP (Rf=0.20) and the cAMP (Rf=0.47) are visualized under UV light at 254 nm. The strips of PEI cellulose comprising the 5′-AMP are cut out and the nucleotide is quantitatively extracted in counting flasks with 2 ml of a solution which is 16M in formic acid and 2M in ammonium formate in water (rotary stirrer for 15 min). After addition of 10 ml of scintillation liquid (OptiPhase HiSafe 3 from Perkin-Elmer/Wallac), the radioactivity is counted using a liquid scintillation counter (model 1414, Perkin-Elmer/Wallac). Each assay is carried out in duplicate. […]

PDE8 = PDE8 enzymatic assay equivalent to that described for PDE7; format: biochemical
[2] = human PDE7 partially purified from HUT-78 cells, 10 μM rolipram present, read-out: IC50 (inhibition of PDE7)
[3] = table comparing PDE7 and PDE8, read-out: IC50 PDE7

SMILES	IC50 [1] [µM]	IC50 (Human PDE7; [2]) [µM]	other results
Cc1ccc([N+](=O)[O-])cc1S(=O)(=O)N(C)C [BRL-50481]	–	–	effect on PBMCs of normal subjects (PBMCs of normal subjects): without effect; apoptosis of CLL-PBMCs (CLL-PBMCs): induces in a dose-dependent way the apoptosis
COc1ccc(Cn2c(=O)c3cc(OC(C)C#N)ccc3n(C3CCN(C=O)CC3)c2=O)cc1OC (stereo not drawn) [No. 1, 2-{[3-(3,4-dimethoxybenzyl)-1-(1-formylpiperidin-4-yl)-2,4-dioxo-1,2,3,4-tetrahydroquinazolin-6-yl]oxy}propanenitrile]	0.4	–	–
COc1ccc(Cn2c(=O)c3cc(OC(CF)CF)ccc3n(C3CCN(C=O)CC3)c2=O)cc1OC [No. 11, 4-[3-(3,4-dimethoxybenzyl)-6-[2-fluoro-1-(fluoromethyl)ethoxy]-2,4-dioxo-3,4-dihydroquinazolin-1(2H)-yl]piperidine-1-carbaldehyde]	0.9	0.039	IC50 (PDE8): 0.14 µM
COc1ccc(Cn2c(=O)c3cc(OCC(F)F)ccc3n(C3CCN(C=O)CC3)c2=O)cc1OC [No. 16, 4-[6-(2,2-difluoroethoxy)-3-(3,4-dimethoxybenzyl)-2,4-dioxo-3,4-dihydroquinazolin-1(2H)-yl]piperidine-1-carbaldehyde]	1.3	0.015	–
COc1ccc(Cn2c(=O)c3cc(OCCO)ccc3n(C3CCN(C=O)CC3)c2=O)cc1OC [No. 72, 4-[3-(3,4-dimethoxybenzyl)-6-(2-hydroxyethoxy)-2,4-dioxo-3,4-dihydroquinazolin-1(2H)-yl]piperidine-1-carbaldehyde]	–	0.089	–
COc1ccc(Cn2c(=O)c3cc(CNC(C)=O)ccc3n(C3CCN(C=O)C3)c2=O)cc1OC (stereo not drawn) [No. 77, N-{[3-(3,4-dimethoxybenzyl)-1-(1-formylpyrrolidin-3-yl)-2,4-dioxo-1,2,3,4-tetrahydroquinazolin-6-yl]methyl}acetamide]	–	0.82	–
COc1ccc(Cn2c(=O)c3c(Cl)cc(Cl)cc3n(C3CCN(C=O)CC3)c2=O)cc1OC [No. 97, 4-[5,7-dichloro-3-(3,4-dimethoxybenzyl)-2,4-dioxo-3,4-dihydroquinazolin-1(2H)-yl]piperidine-1-carbaldehyde]	–	0.061	–
COc1ccc(Cn2c(=O)c3cc(OC(F)F)ccc3n(C3CCN(C=O)CC3)c2=O)cc1OC [No. 111, 4-[6-(difluoromethoxy)-3-(3,4-dimethoxybenzyl)-2,4-dioxo-3,4-dihydroquinazolin-1(2H)-yl]piperidine-1-carbaldehyde]	–	0.0067	–
COc1cc(Cn2c(=O)c3cc(OC(CF)CF)ccc3n(C3CCN(C=O)CC3)c2=O)ccc1OCC(=O)N1CCCCC1 [No. 251, 4-{6-[2-fluoro-1-(fluoromethyl)ethoxy]-3-[3-methoxy-4-(2-oxo-2-(piperidin-1-yl)ethoxy)benzyl]-2,4-dioxo-3,4-dihydroquinazolin-1(2H)-yl}piperidine-1-carbaldehyde]	–	–	IC50 (Human PDE7; [3]): 0.046 µM
N#Cc1cc(Cn2c(=O)c3cc(OC(CF)CF)ccc3n(C3CCN(C=O)CC3)c2=O)ccc1-c1ccccc1 [No. 294, 4-({6-[2-fluoro-1-(fluoromethyl)ethoxy]-1-(1-formylpiperidin-4-yl)-2,4-dioxo-1,4-dihydroquinazolin-3(2H)-yl}methyl)biphenyl-2-carbonitrile]	–	–	IC50 (Human PDE7; [3]): 0.037 µM; IC50 (PDE8): 0.015 µM

Reference: patent US8242126B2, “Quinazolinedione derivatives, preparation thereof and therapeutic uses thereof” (Sanofi, priority 2007, dated 2012)
